Reference: US8912181B2 (Taiho Pharmaceutical Co., Ltd., priority 2011, dated 2014)

Columns and labels:
[1] = target: human HSP90 alpha protein (N-terminal, amino acids 2 to 236) (Homo sapiens (Human), UniProt P07900); assay: Determination of HSP90-binding activity (AlphaScreen competitive assay with biotinylated geldanamycin); settings: inhibition of binding of biotinylated geldanamycin to purified HSP90 N-terminal protein, read-out: HSP-binding activity IC50
Procedure: First, a purified HSP90 solution was prepared as follows: a human HSP90 alpha gene (NCBI Reference Sequence accession no. NM-005348) region corresponding to amino acids 2 to 236 of human HSP90 alpha protein (NCBI Reference Sequence accession no. NP-005339; full length: 732 amino acids) was inserted to pET-19b (Novagen; Merck KGaA) to construct a plasmid pET-HS[…] for expression of the HSP90 N-terminal protein having a His-tag at the N-terminus. E. coli (BL21(DE3), Stratagene Corp.) was transformed with pET-HS[…] and then cultured at 37° C. for 4 hours in the presence of 0.5 mM isopropyl-beta-D-thiogalactopyranoside (Sigma-Aldrich Corp.). The collected E. coli was suspended in a lysis buffer (50 mM Tris-HCl (pH 7.5), 200 mM NaCl) and sonicated. The sonicated cell solution was centrifuged (40,000×g, 20 minutes), and the supernatant was used as a crude extract. This crude extract was fractionated using Ni Sepharose High Performance (GE Healthcare Japan Corp.) chromatography and HiLoad 26/60 Superdex 75 pg (GE Healthcare Japan Corp.). Then, a fraction of HSP90 protein concentrates was prepared in a solution containing 50 mM Tris-HCl (pH 7.5) and 20% glycerol as a purified HSP90 solution. The purified HSP90 solution was divided and stored at -80° C. until use. HSP90-binding activity was determined by an AlphaScreen competitive assay system. […] After reaction at room temperature for 2 hours, biotinylated geldanamycin was added thereto at a concentration of 40 nM/well and further reacted for 1 hour. Detection mix (20 mM HEPES-KOH (pH 7.5), 0.5% BSA, 0.04 mg/mL Nickel Chelate Acceptor beads, 0.04 mg/mL Streptavidin-coated Donor beads) (#6760619C, PerkinElmer, Inc.) was added to each well in an amount equal to the amount of the reaction solution and reacted at room temperature for 1 hour in the dark. Then, fluorescence intensity was measured using Multilabel Plate Reader EnVision (PerkinElmer, Inc.). Percent inhibition (%) of the binding of biotinylated geldanamycin by each compound of the present invention was determined according to the formula shown below with the fluorescence signal of no test substance addition group as a control. […] Percent inhibition (%)=(C-T)/C×100, wherein T: Signal of well with test substance addition C: Signal of well without test substance addition.

[2] = test system: SK-BR-3 cells; assay: Determination of cell growth inhibition (crystal violet staining method); format: cell-based; settings: Homo sapiens; breast cancer cells SK-BR-3, 72 hours culture with test substance
Procedure: Cell growth was assayed by a crystal violet staining method. SK-BR-3 cells (HTB-30) purchased from American Type Culture Collection were inoculated at a concentration of 5,000 cells/well to a 96-well plate (#353075, BD Biosciences). After culture at 37° C. for 24 hours in a 5% CO2 incubator, each test substance was added thereto, and the cells were further cultured for 72 hours. A 25% glutaraldehyde solution (#17025-25, Nacalai Tesque, Inc.) was added thereto at a concentration of 20 μL/well per 200 μL of the medium, and the plate was incubated at room temperature for 20 minutes to fix the cells. The plate was washed with water and dried. Then, a solution containing 0.05% crystal violet (#038-17792, Wako Pure Chemical Industries, Ltd.) and 20% methanol was added thereto at a concentration of 100 μL/well, and the plate was incubated at room temperature for 20 minutes to stain the cells. The plate was washed with water and dried. A mixed solution of 0.05 M NaH2PO4 and ethanol (mixed in equal amounts) was added thereto at a concentration of 100 μL/well. Absorbance was measured at 540 nm using a microplate reader (MTP-450, Corona Electric Co., Ltd.) and used as an index for the number of cells per well. Percent inhibition (%) of cell growth by each compound of the present invention was determined according to the formula shown below with the absorbance of no drug addition group as a control. […] Percent inhibition (%)=(C−T)/C×100, wherein T: Absorbance of well with test substance addition C: Absorbance of well without test substance addition.

Compound	IC50 [1] [nM]	IC50 [2] [nM]
Cn1cc(-c2cn(-c3cccc4c(-c5ccc(C(N)=O)c(N)c5)ccnc34)cn2)cn1 [Example 132, 2-Amino-4-(8-(4-(1-methyl-1H-pyrazol-4-yl)-1H-imidazol-1-yl)quinolin-4-yl)benzamide]	320	960
Cc1ccc(-c2cn(-c3cccc4c(-c5ccc(C(N)=O)c(NC(C)(C)C)c5)cc(C(F)(F)F)nc34)cn2)cn1 [Example 99, 2-(Tert-butylamino)-4-(8-(4-(6-methylpyridin-3-yl)-1H-imidazol-1-yl)-2-(trifluoromethyl)quinolin-4-yl)benzamide]	270	40
Cn1cc(-c2cn(-c3cccc4c(-c5ccc(C(N)=O)cc5N)cc(C(F)(F)F)nc34)cn2)cn1 [Example 73, 3-Amino-4-(8-(4-(1-methyl-1H-pyrazol-4-yl)-1H-imidazol-1-yl)-2-(trifluoromethyl)quinolin-4-yl)benzamide]	190	70
CNc1cncc(-c2cccc3c(-c4ccc(C(N)=O)c(NC5CCC(O)CC5)c4)nccc23)c1 (centres unmarked) [Example 34, 2-(4-Hydroxycyclohexylamino)-4-(5-(5-(methylamino)pyridin-3-yl)isoquinolin-1-yl)benzamide]	140	50
COc1cncc(-c2cccc3c(-c4ccc(C(N)=O)c(NC5CCC(O)CC5)c4)nccc23)c1 (centres unmarked) [Example 24, 2-(4-Hydroxycyclohexylamino)-4-(5-(5-methoxypyridin-3-yl)isoquinolin-1-yl)benzamide]	650	690
NC(=O)c1ccc(-c2nccc3c(-n4cnc(-c5cccnc5)c4)cccc23)cc1NC1CCC(O)CC1 (centres unmarked) [Example 32, 2-(4-Hydroxycyclohexylamino)-4-(5-(4-(pyridin-3-yl)-1H-imidazol-1-yl)isoquinolin-1-yl)benzamide]	80	20
NC(=O)c1ccc(-c2cc(C(F)(F)F)nc3c(-c4cnc5ccccc5c4)cccc23)cc1N [Example 110, 2-Amino-4-(2′-(trifluoromethyl)-3,8′-biquinolin-4′-yl)benzamide]	380	100
NC(=O)c1ccc(-c2cc(C(F)(F)F)nc3c(-n4cnc(-c5ccccc5)c4)cccc23)cc1N [Example 108, 2-Amino-4-(8-(4-phenyl-1H-imidazol-1-yl)-2-(trifluoromethyl)quinolin-4-yl)benzamide]	3750	340
CC(C)Nc1cc(-c2cc(C(F)(F)F)nc3c(-n4cnc(-c5cnn(C)c5)c4)cccc23)ccc1C(N)=O [Example 64]	170	10
Cc1ccc2ncc(-c3cccc4c(-c5ccc(C(N)=O)c(NC6CCC(O)CC6)c5)nccc34)cc2c1 (centres unmarked) [Example 9, 2-(4-Hydroxycyclohexylamino)-4-(5-(6-methylquinolin-3-yl)isoquinolin-1-yl)benzamide]	270	50
CCNc1cc(-c2cc(C(F)(F)F)nc3c(-n4cnc(-c5cnn(C)c5)c4)cccc23)ccc1C(N)=O [Example 3, 2-(Ethylamino)-4-(8-(4-(1-methyl-1H-pyrazol-4-yl)-1H-imidazol-1-yl)-2-(trifluoromethyl)quinolin-4-yl)benzamide]	190	10
Cc1cc2c(-n3cnc(-c4cnn(C)c4)c3)cccc2c(-c2ccc(C(N)=O)c(NCC3CC3)c2)n1 [Example 68, 2-(Cyclopropylmethylamino)-4-(3-methyl-5-(4-(1-methyl-1H-pyrazol-4-yl)-1H-imidazol-1-yl)isoquinolin-1-yl)benzamide]	190	10
NC(=O)c1ccc(-c2cccc3c(-c4cnc5ccccc5c4)nccc23)cc1NC1CCC(O)CC1 (centres unmarked) [Comp. Ex. 1, 2-(4-Hydroxycyclohexylamino)-4-(1-(quinolin-3-yl)isoquinolin-5-yl)benzamide, reference compound]	> 100000	8420
